These results are taken from patent publication US8062651B1, “Attractant pheromone for the male pink hibiscus mealybug, Maconellicoccus hirsutus (Green) (Homoptera: Pseudococcidae)” (The United States of America as represented by the …, priority 2004, dated 2011).

Assay [1] concerns male M. hirsutus antennae. The assay is described as follows: Coupled GC-EAD of male antennae. Details: species or system Maconellicoccus hirsutus. The conditions noted are these: GC-EAD of female airborne extracts. The method, then: Analytical Methods: The coupled gas chromatographic-electroantennographic detection (GC-EAD) system used was as previously described (Zhang, A., et al., J. Chem. Ecol., 23: […] (1997); Zhang, A., et al., J. Chem. Ecol., 25: 1221-1232 (1999); Zhang, A., and S. Polavarapu, J. Chem. Ecol., 29: 2153-2164 (2003)). A HP 6890 GC equipped with a 60 m×0.25-mm ID, 0.25-μm film-thickness DB-WAXETR (J&W Scientific Inc., Folsom, Calif.) capillary column in the splitless mode with hydrogen (1.4 ml/min) as carrier was used for analysis. The column temperature program was hold at 80° C. for 2 min, then heated to 250° C. at 15° C./min and held for 15 min. Electron impact mass spectrometry (EI mass) was conducted on a HP 6890 GC coupled to a HP 5973 Mass Selective Detector using an a 60 m×0.25-mm ID, 0.25-μm film-thickness DB-WAXETR capillary column at 50° C. for 2 min, then programmed to 230° C. at 15° C./min and held for 15 min or a 30 m×0.25-mm ID, 0.25-μm film-thickness DB-1 capillary column (50° C. for 2 min, then programmed to 300° C. at 15° C./min and held for 15 min) with helium as carrier gas. […] GC-Fourier transform infrared (FTIR) spectra were recorded on a HP GC coupled to a Bio-Rad IRD II infrared detector using a 60 m DB-WAXETR capillary column with conditions as described as above. […] NMR spectra were recorded in C6D6 solution on a Bruker QE Plus spectrometer at 300 MHz for ^1H. […]

The next assay deals with male M. hirsutus. The assay is described as follows: Field bioassay: sticky traps baited with rubber septa lures. It counts as in vivo, Maconellicoccus hirsutus. The conditions noted are these: (R)-lavandulol and (R)-maconelliol together, equal amount to ester, 1 and 10-μg doses, 1:5. The method, then:
Field Bioassays: Gray halo-butyl rubber septa (5 mm, West Pharmaceutical Services, Kearney, Nebr.) loaded with 1 μg of RS, SR, RR, and SS binary diastereoisomeric mixtures of two candidate pheromone compounds placed on white sticky cards (Pherocon V traps, Trécé, Salinas, Calif.) were used for the field trails in Florida. Treatments were arranged in a randomized complete block design with nine replicates and about ˜1 m between traps within replicates. The cards were attached to the top of metal rods and placed one foot above hibiscus plants in a hedgerow. Cards were collected, put separately in transparent plastic bags, and brought back to the laboratory to count the trapped male PHM under a microscope. Comparisons were made between candidate synthetic mixtures and a blank control trap.
Field bioassays: Gray halo-butyl rubber septa (5 mm, West Pharmaceutical Services, Kearney, Nebr.) were soxhlet extracted with acetone for 48 hr and dried in a fume hood before use. The cleaned septa were loaded with the desired rates of candidate pheromone components in ˜40 μl of hexane solution, and used for field tests. The same amount of hexane was loaded on septa for the blank controls. […]

Assay [2] has as its system male M. hirsutus antennae. The conditions noted are these: alcoholic moieties found in volatile extracts; Zhang et al. 2004; cited from earlier work.

Molecules are shown by their SMILES.

In the case of `C=C(C)[C@@H](CC=C(C)C)COC(=O)[C@@H](C)CC` [compound 1, (R)-2-Isopropenyl-5-methylhex-4-enyl (S)-2-methylbutanoate], the “EAD response of male M. hirsutus antennae” value in assay [1] is listed as “consistently responded”.
As to `C=C(C)[C@H](CO)CC=C(C)C` [(R)-lavandulol, (R)-(−)-lavandulol, reference compound], in the assay with male M. hirsutus, the “effect on attraction to the RS isomers” value is recorded as “significantly reduced attraction”. Further, in assay [2], the antennal activity result is listed as “did not elicited any antennal activity”.
Take `CC[C@H](C)C(=O)OC[C@@H]1CC(=C(C)C)C1(C)C` [compound 2, [(R)-2,2-Dimethyl-3-(1-methylethylidene)cyclobutyl]methyl (S)-2-methylbutanoate]: in assay [1], the “EAD response of male M. hirsutus antennae” value is “consistently responded”.
For the molecule `CC(C)=C1C[C@@H](CO)C1(C)C` [(R)-maconelliol, [(R)-(−)-2,2-Dimethyl-3-(1-methylethylidene)cyclobutyl]methanol], the “effect on attraction to the RS isomers” value with male M. hirsutus is reported as “significantly reduced attraction”. The antennal activity entry in assay [2] is “did not elicited any antennal activity”.
